Data: patent US5098921A, “Nitro-substituted aromatic or hetero-aromatic compounds for use in cancer treatment” (National Research Development Corporation, priority 1987, dated 1992)
Where two headings read alike, the source gives them in different places.

Tests used:
[1] = Toxicity to cells, 3 hours at 37° C., in air and in N2; assay type: cell-based; conditions: air; concentration required for a surviving fraction of 10^-1; 3 hours at 37° C.; full growth medium (bicarbonate); read-out: CAir
Method: (§1) ^(a) Toxicity is 3 hours at 37° C. Concentrations are those
(§2) required for a surviving fraction of 10^-1. Drugs were made up in ful
(§3) growth medium (buffered with bicarbonate) just before addition to cells.

cells [2] = test: as above; assay type: cell-based; conditions: for CC90: read-out: CN2; for CAir/CN2: ratio of toxic concentrations, air to N2, 180 min
Method: as §1, §2, §3

KHT tumour cells = test: Survival of KHT tumour cells after sensitiser i.p. plus 10 Gy X-rays (KHT tumour implanted subcutaneously in C3H mice); assay type: in vivo
Method: In Table 2 comparison is made with 1-(2-nitro-1-imidazolyl)-3-(1-aziridino)-2-propanol (RSU-1069). All compounds were administered in phosphate buffered saline (PBS) at pH 7.4 except RB-6145 which was administered in PBS at pH 5.4.
The maximum does used was the maximum tolerated dose (MTD).

[3] = Maximum tolerated dose (MTD); assay type: in vivo, C3H mice; conditions: for MTD: mouse, in vivo, ip, intraperitoneal, b203: maximum dose used was the MTD, read-out: maximum tolerated dose (MTD) = maximum dose used in Table 2
Method: (§4) (a) C3H mice in which the KHT tumour had been implanted subcutaneously were administered RB-6145 (Example 2) intraperitoneally before treatment with radiation. The time before such treatment at which the drug was administered was such that maximum enhancement was effected. The results of such treatment are set out in Table 1 with comparison to misonidazole (MISO), etanidazole (SR 2508) and pimonidazole (Ro 03-8799). In Table 2 comparison is made with 1-(2-nitro-1-imidazolyl)-3-(1-aziridino)-2-propanol (RSU-1069). All compounds were administered in phosphate buffered saline (PBS) at pH 7.4 except RB-6145 which was administered in PBS at pH 5.4.
The surviving fraction for 10 Gy alone is 3×10^-2. The maximum does used was the maximum tolerated dose (MTD).

cells [4] = test: Sensitisation of cells, C1.6 (drugs made up in PBS at pH 7.4); assay type: cell-based; conditions: drugs made up in PBS at pH 7.4 just before addition to cells
Description: ^(b) Drugs made up in PBS at pH 7.4 just before addition to cells.

KHT tumour = test: In vivo sensitisation, scored against RSU1069 and MISO; set-up: species or system C3H mice; key to the marks not given beside the values; conditions: scoring system relative to RSU1069 and MISO
Method: as §4

[5] = N2, concentration required for a surviving fraction of 10^-1, 3 hours at 37° C., full growth medium (bicarbonate)
[6] = Table 1, sensitiser at a dose of 200 mg/kg and 10 Gy X-rays, NONE = 1.0
[7] = Table 1, sensitiser at a dose of 200 mg/kg and 10 Gy X-rays, intraperitoneal

SMILES | CC90 at 3 h [1] [µM] | CAir/CN2 (cells [2]) | EC (enhancement ratio 1.6) (cells [4]) [µM] | CC90 (cells [2]; 3 h) [µM] | enhancement ratio (KHT tumour cells; [6]) | surviving fraction (KHT tumour cells; [7]) | in vivo sensitisation (KHT tumour) | other results
O=[N+]([O-])c1nccn1CC(O)CNCCF (stereo not drawn) [RB-6159, 1-(2-Nitro-1-imidazolyl)-3-(2-fluoroethylamino)-2-propanol] | 35000 | 14 |  |  |  |  |  | CC90 (cells [2]; [5]): 2500 µM
O=[N+]([O-])c1nccn1CC(O)CN1CC1 (stereo not drawn) [RSU-1069, 1-(2-nitro-1-imidazolyl)-3-(1-aziridino)-2-propanol] |  |  |  |  |  |  |  | surviving fraction (KHT tumour cells; 8 mg/kg): 7.6 × 10^-3; surviving fraction (KHT tumour cells; 30 mg/kg): 4.0 × 10^-3; surviving fraction (KHT tumour cells; 50 mg/kg): 3.2 × 10^-3; surviving fraction (KHT tumour cells; 80 mg/kg): 1.6 × 10^-3; MTD [3]: 80 mg/kg
O=[N+]([O-])c1nccn1CC(O)CNCCI (stereo not drawn) [RB-6146, 1-(2-Nitro-1-imidazolyl)-3-(2-iodoethylamino)-2-propanol] | 2400 | 30 | 300 | 80 |  |  |  | 
O=[N+]([O-])c1nccn1CC(O)CNCCBr (stereo not drawn) [RB-6145, 1-(2-Nitro-1-imidazolyl)-3-(2-bromoethylamino)-2-propanol] | 2300 | 25 | 150 | 90 | 2.7 | 1.8 × 10^-3 | ++++ | dose-for-dose sensitisation compared with RSU-1069 (KHT tumour cells; 10 Gy X-rays): on a dose-for-dose basis it is the same as RSU-1069 as a sensitiser; surviving fraction (KHT tumour cells; Table 2, RB-6145 0.13 mmol kg^-1 (50 mg/kg) and 10 Gy X-rays): 7.6 × 10^-3; surviving fraction (KHT tumour cells; Table 2, RB-6145 0.27 mmol kg^-1 (100 mg/kg) and 10 Gy X-rays): 5.2 × 10^-3; surviving fraction (KHT tumour cells; Table 2, RB-6145 0.53 mmol kg^-1 (200 mg/kg) and 10 Gy X-rays): 1.8 × 10^-3; surviving fraction (KHT tumour cells; Table 2, RB-6145 0.80 mmol kg^-1 (300 mg/kg) and 10 Gy X-rays, 10 Gy alone 3×10^-2): 1.4 × 10^-3; doses that can be used compared with RSU-1069 ([3]; Table 2): Much higher doses of RB-6145 can be used; MTD [3]: 300 mg/kg
O=[N+]([O-])c1nccn1CC(O)CNCCO (stereo not drawn) [RSU-1137, 1-(2-nitro-1-imidazolyl)-3-(2-hydroxyethylamino)-2-propanol, reference compound] | 70000 | 20 | 450 |  |  |  | ++ | CC90 (cells [2]; [5]): 3500 µM
O=[N+]([O-])c1nccn1CC(O)CN1CCCCC1 (stereo not drawn) [Ro03-8799, pimonidazole] |  |  |  |  | 1.0 | 3 × 10^-2 |  | 
O=C(Cn1ccnc1[N+](=O)[O-])NCCO [SR 2508, etanidazole] |  |  |  |  | 1.6 | 1.1 × 10^-2 |  | 
O=[N+]([O-])c1nccn1CC(O)CNCCCl (stereo not drawn) [RB-6144, 1-(2-Nitro-1-imidazolyl)-3-(2-chloroethylamino)-2-propanol] | 5000 | 15 | 250 | 350 |  |  | ++ | 
COCC(O)Cn1ccnc1[N+](=O)[O-] (stereo not drawn) [MISO, misonidazole] |  |  |  |  |  |  |  | enhancement ratio (KHT tumour cells; mouse, in vivo, 200 mg/kg): 1.5; surviving fraction (KHT tumour cells; mouse, in vivo, ip, 200 mg/kg): 1.2 × 10^-2
